# According to US20060159617A1, “Small technetium-99m and rhenium labeled agents and methods for imaging tissues, organs and tumors” (priority 2002, published 2006):
# Experiments:
# [1] = tested on: DU145 human prostate carcinoma; assay: In-vivo tumor uptake / biodistribution, DU145 tumor-bearing nude mice; settings: 1 h
# Procedure: (§1) To study the tumor uptake of radiolabeled metal complexes, in vivo, biodistribution experiments at 1 h after their administration were carried out in C57B16 male mice with palpable B16 melanoma nodules and male nude mice bearing DU145 human prostate carcinoma in the hind limb.
# (§2) The biodistribution data including tumor/nontumor (T/NT) ratios for selected organs are summarized in Table 1 and 2 as percentage injected dose per gram (% ID/g).
# B16 melanoma = assay: In-vivo tumor uptake / biodistribution, B16 melanoma-bearing mice; settings: 1 h, B16/F0 melanoma mice
# Procedure: as §1, §2
# σ1 receptor = molecular target: T1, σ1 receptor (Cavia porcellus, UniProt Q60492); assay: Sigma-1 receptor competition binding assay with [3H]-(+)-pentazocine; parameters: species or system guinea pig; settings: apparent Ki (Cheng-Prusoff), brain membranes
# T1 construct: The membranes were prepared from guinea pig brain (minus cerebellum) as described above; from tissue; host or cells: guinea pig brain (minus cerebellum) membranes
# Procedure: The in vitro σ1 receptor binding affinities of rhenium coordinated complexes were determined in a competition assay using […] and high-affinity σ1 ligand [3H]-(+)-pentazocine (28 Ci/mmol, NEN Life Science Inc., Cambridge, Mass.). See, Mol. Neuropharmacol. 1993, 3, 117-126.
# The membranes were prepared from guinea pig brain (minus cerebellum) as described above and stored at −70 ° C. Twelve concentrations of the nonradioactive rhenium complexes ranging from 1×10^−11 to 1×10^−3 and protein samples (0.15 mg of membrane protein) were incubated with […] [3H]-(+)-pentazocine in a total volume of 0.25 mL of Tris-HCl (50 mM, pH 8.0). Incubations were carried out for 120 min at 25° C. All assays were terminated by dilution with 5 mL of ice-cold Tris-HCl (10 mM), pH 8.0, and solution were filtered through glass-fiber filters (Whatman GF/F; presoaked in 0.5% polyethyleneimine for 30 min at 25° C.). Filters were then washed three times with 5 mL of ice-cold Tris-HCl (50 mM, pH 8.0), and counted in Hionic-Fluor cocktail (Packard, Groningen, the Netherlands). The corresponding IC50 values were determined with Origin 6.0 software (OriginLab, Northampton, Mass.) and were used for the calculation of the apparent Ki values with the Cheng-Prusoff equation. See, Biochem. Pharmacol. 1973, 22, 3099-3108.
# σ2 receptor = molecular target: T2, σ2 receptor (Rattus norvegicus, UniProt Q5U3Y7); assay: σ2 receptor competition binding assay with [3H]-DTG, σ1 masked; settings: apparent Ki, rat liver membranes
# T2 construct: Rat liver membranes were prepared from male Sprague-Dawley rat livers as previously described; from tissue; host or cells: male Sprague-Dawley rat liver membranes
# T2 sequence (Q5U3Y7 1-176): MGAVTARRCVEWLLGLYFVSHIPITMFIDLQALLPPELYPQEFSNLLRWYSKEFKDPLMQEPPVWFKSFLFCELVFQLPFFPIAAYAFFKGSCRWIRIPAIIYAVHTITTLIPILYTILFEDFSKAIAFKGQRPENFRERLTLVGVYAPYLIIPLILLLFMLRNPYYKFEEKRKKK
# Procedure: Rat liver membranes were prepared from male Sprague-Dawley rat livers as previously described (Eur. J. Pharmacol.—Mol. Pharmacol. Sect. 1994, 268, 9-18). The in vitro σ2 receptor binding affinities of rhenium coordinated complexes were determined in a competition assay using rat livers and [^3H]-DTG (31 Ci/mmol, NEN Life Science Inc., Cambridge, Mass.) as radioligand in the presence of 10 μM 1-pyrrolidinylethyl 3,4-dichlorophenylacetate oxalate (ACT915 oxalate) to mask σ1 receptors (Bioorg. & Med. Chem. Lett. 2000, 10, 17-18). Competition assays were performed with twelve concentrations of the nonradioactive rhenium complexes ranging from 1×10^−10 to 1×10^−3 and protein samples (0.15 mg of membrane protein) in a total volume of 0.25 mL of Tris-HCl (50 mM, pH 8.0) for 120 min at 25° C. All other manipulations and data analysis were performed as described vide supra for the σ1-receptor assays.
# α1 receptor = assay: Alpha-1 receptor competition binding assay with [3H]-Prazosin; settings: apparent Ki, rat frontal cortex
# Procedure: The in vitro α1 receptor binding affinities of rhenium coordinated complexes were determined in a competition assay using rat frontal cortex and high-affinity α1 ligand [^3H]-Prazosin (80 Ci/mmol, NEN Life Science Inc., Cambridge, Mass.). See, Eur. J. Nucl. Med. 2002, 29, 82-87.
# (§3) The frontal cortex of rat brain was prepared as described above and store at −70° C. until used in the binding assays. Ten concentrations of the nonradioactive rhenium complexes ranging from 1×10^−10 to 1×10^−3 and protein samples (0.15 mg of membrane protein) were incubated with 1.5 nM [^3H]-Prazosin in a total volume of 0.25 mL of Tris-HCl (50 mM, pH 7.4, 10 mM MgSO4). Incubations were carried out for 60 min at 25° C. All assays were terminated by dilution with 5 mL of ice-cold Tris-HCl (10 mM), pH 7.4, and solution were filtered through glass-fiber filters (Whatman GF/F; presoaked in 0.5% polyethyleneimine for 30 min at 25° C.). Filters were then washed three times with 5 mL of ice-cold Tris-HCl (50 mM, pH 7.4), and counted in Hionic-Fluor cocktail (Packard, Groningen, the Netherlands). The corresponding IC50 values were determined with Origin 6.0 software (OriginLab, Northampton, Mass.) and were used for the calculation of the apparent Ki values with the Cheng-Prusoff equation. See, Biocheni. Pharmacol. 1973, 22, 3099-3108.
# [2] = Determination of lipophilicity and pKa values by HPLC; type: physicochemical
# Procedure: The lipophilicity and pKa values of all complexes were determined using HPLC methods described previously (Stylli, C.; Theobald, A. E. Determination of Ionization Constants of Radiopharmaceuticals in Mixed Solvents by HPLC. Appl. Radiat. Isot., 1987, 38, 701-708; Johannsen, B.; Scheunemann, M.; Spies, H.; Brust, P.; Wober, J.; Syhre, R.; Pietzsch, H.-J. Technetium(V) and Rhenium(V) Complexes for 5-HT2A Serotonin Receptor Binding: Structure-Affinity Considerations. Nucl. Med. Biol., 1996, 23, 429-438; and Johannsen, B.; Berger, R.; Brust, P.; Pietzsch, H.-J.; Scheunemann, M.; Seifert, S.; Spies, H.; Syhre, R. Structural Modification of Receptor-Binding Technetium-99m Complexes in Order to Improve Brain Uptake. Eur. J. Nucl. Med. 1997, 24, 316-319). […] The mobile phase was acetonitrile:phosphate buffer (0.01 M), 3:1, v/v, with the aqueous buffer adjusted to the desired pH between 3 and 11. The capacity factor (k′) was calculated for each determination (Braumann, T.; Grimme, L. H. Determination of Hydrophobic Parameters for Pyridazinone Herbicides by Liquid-Liquid Partition and Reversed-Phase High-Performance Liquid Chromatography. J. Chromatogr. 1981, 206, 7-15; El Tayer, N.; van der Waterbeemd, H.; Testa, B. Lipophilicity Measurements of Protonated Basic Compounds by Reversed-Phase High-Performance Liquid Chromatography. II. Procedure for the Determination of a Lipophilic Index Measured by Reversed-Phase High Performance Liquid Chromatography. J. Chromatogr. 1985, 320, 305-312; and Minick, D. J.; Frenz, J. H.; Patrick, M. A.; Brent, D. A. A Comprehensive Method for Determining Hydrophobicity Constants by Reversed-Phase High-Performance Liquid Chromatography. J. Med. Chem., 1988, 31, 1923-1933) and the partition coefficient at a given pH (D or logD) were calculated from the equation: log D=a log k′+b where the parameters a and b are predetermined using standard amines. The fitted points of inflection from the sigmoidal DHPLC/pH profiles permit calculation of the pKHPLC(Stylli, C.; Theobald, A. E. Determination of Ionization Constants of Radiopharmaceuticals in Mixed Solvents by HPLC. Appl. Radiat. Isot., 1987, 38, 701-708). The aqueous ionization constants pKa were calculated from the pKHPLC values after correction with a predetermined correction factor obtained using standard amine compounds. Log P values of the neutral complexes were estimated from the respective upper plateau of the sigmoidal log D/pH curve in the alkaline range.
# 5HT1A receptor = molecular target: T3, 5HT1A receptor (Rattus norvegicus, UniProt P19327); assay: 5HT1A receptor competition binding assay with [3H]-8-OH-DPAT; settings: apparent Ki, rat hippocampus
# T3 construct: The brains were rapidly removed, and hippocampus, frontal cortex, hypothalamus, and striatum were hand-dissected on ice; from tissue; host or cells: male Sprague-Dawley rat hippocampus membranes
# T3 sequence (P19327 1-422): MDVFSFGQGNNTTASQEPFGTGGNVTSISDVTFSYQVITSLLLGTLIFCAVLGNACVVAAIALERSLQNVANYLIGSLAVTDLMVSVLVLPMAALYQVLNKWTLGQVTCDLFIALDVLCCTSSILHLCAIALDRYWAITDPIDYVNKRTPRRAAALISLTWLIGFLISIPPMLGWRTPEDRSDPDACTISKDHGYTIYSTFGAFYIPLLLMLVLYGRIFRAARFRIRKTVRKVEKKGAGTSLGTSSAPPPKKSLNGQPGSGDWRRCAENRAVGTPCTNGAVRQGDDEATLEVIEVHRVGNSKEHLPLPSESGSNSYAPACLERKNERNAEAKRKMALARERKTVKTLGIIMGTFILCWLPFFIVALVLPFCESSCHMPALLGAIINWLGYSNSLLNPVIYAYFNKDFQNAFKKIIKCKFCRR
# Procedure: The in vitro 5HT1A binding affinities of rhenium coordinated complexes were determined in a competition assay using rat hippocampus and high-affinity 5HT1A-ligand [^3H]-8-OH-DPAT (135 Ci/mmol, NEN Life Science Inc., Cambridge, Mass.). See, Brain Res. 1995, 673, 217-225.
# Male Sprague-Dawley rats (weighing 150-170 g) were sacrificed using anesthesia agent isoflurane. The brains were rapidly removed, and hippocampus, frontal cortex, hypothalamus, and striatum were hand-dissected on ice and stored at −70° C. Tissue was thawed at room temperature and homogenized using a Brinkmann Polytron tissue disrupter in 50 volumes (wt/vol) of ice-cold 50 mM Tris-HCl buffer (pH 7.4). The suspension was centrifuged twice at 27,000 g for 20 min at 4° C. The membrane pellets were resuspended in 50 volumes of (wt/vol) Tris-HCl buffer and incubated at 37° C. for 20 min in a water bath, before a final centrifugation step (27,000 g; 20 min; 4° C.). The final tissue pellets were stored at −70° C. until assayed.
# as §3, with “Twelve” for “The frontal cortex of rat brain was prepared as described above and store at −70° C. until used in the binding assays. Ten”, “1×10^−11” for “1×10^−10”, “1×10^−4” for “1×10^−3”, “[^3H]-8-OH-DPAT” for “[^3H]-Prazosin”, “Biochem.” for “Biocheni.”
# T1 sequence (Q60492 whole entry): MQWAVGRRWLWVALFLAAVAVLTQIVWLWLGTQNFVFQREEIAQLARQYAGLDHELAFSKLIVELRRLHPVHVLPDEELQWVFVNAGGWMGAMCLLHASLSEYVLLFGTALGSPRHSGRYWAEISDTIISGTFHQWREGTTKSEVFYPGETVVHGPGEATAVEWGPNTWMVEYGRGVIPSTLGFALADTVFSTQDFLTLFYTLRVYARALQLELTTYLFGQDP
structure (smiles),measurement,setting,value
O=C1CN(CCCN2CCC(Cc3ccccc3)CC2)CC[S][99Tc]2(=[O])[S]CC[N]12 (centres unmarked) [Re 99mTc-15],Tumor/Blood ratio,[1],7.93
same,Tumor/Liver ratio,[1],0.21
same,Tumor/Lung ratio,[1],0.25
same,Tumor/Muscle ratio,[1],2.33
same,Blood %ID/g,[1]; blood,0.31 %ID/g
same,Brain %ID/g,[1]; brain,0.51 %ID/g
same,Heart %ID/g,[1]; heart,1.82 %ID/g
same,Intestine %ID/g,[1]; intestine,20.94 %ID/g
same,Kidney %ID/g,[1]; kidney,7.92 %ID/g
same,Liver %ID/g,[1]; liver,12.06 %ID/g
same,Lung %ID/g,[1]; lung,9.96 %ID/g
same,Muscle %ID/g,[1]; muscle,1.06 %ID/g
same,Skin %ID/g,[1]; skin,1.76 %ID/g
same,Spleen %ID/g,[1]; spleen,7.56 %ID/g
same,Stomach %ID/g,[1]; stomach,5.26 %ID/g
same,Tumor %ID/g,[1]; tumor,2.46 %ID/g
same,Tumor/Blood ratio,B16 melanoma,7.47
same,Tumor/Liver ratio,B16 melanoma,0.21
same,Tumor/Lung ratio,B16 melanoma,0.31
same,Tumor/Muscle ratio,B16 melanoma,3.57
same,Blood %ID/g,B16 melanoma; blood,0.44 %ID/g
same,Brain %ID/g,B16 melanoma; brain,0.48 %ID/g
same,Heart %ID/g,B16 melanoma; heart,1.87 %ID/g
same,Intestine %ID/g,B16 melanoma; intestine,14.38 %ID/g
same,Kidney %ID/g,B16 melanoma; kidney,7.66 %ID/g
same,Liver %ID/g,B16 melanoma; liver,10.23 %ID/g
same,Lung %ID/g,B16 melanoma; lung,15.60 %ID/g
same,Muscle %ID/g,B16 melanoma; muscle,0.90 %ID/g
same,Skin %ID/g,B16 melanoma; skin,1.21 %ID/g
same,Spleen %ID/g,B16 melanoma; spleen,5.95 %ID/g
same,Stomach %ID/g,B16 melanoma; stomach,6.81 %ID/g
same,Tumor %ID/g,B16 melanoma; tumor,3.18 %ID/g
O=C1CN(CCCN2CCC(O)(c3ccc(Cl)cc3)CC2)CC[S][Re]2(=[O])[S]CC[N]12 (centres unmarked) [Re-18],Ki,σ1 receptor,2.96 µM
same,Ki,σ2 receptor,0.528 ± 0.111 µM
same,Ki,α1 receptor,0.98 ± 0.18 µM
same,k' (pH = 7.4),[2]; HPLC capacity factor at pH 7.4,29.7
same,k' (Max),"[2]; HPLC capacity factor, maximum",37.5
same,pKa (Corrected),"[2]; HPLC method, corrected with standard amines",7.26
O=C1CN(CCCN2CCC(c3ccccc3)CC2)CC[S][Re]2(=[O])[S]CC[N]12 (centres unmarked) [Re-21],Ki,σ1 receptor,0.553 µM
same,Ki,σ2 receptor,0.0846 ± 0.0079 µM
same,Ki,α1 receptor,0.039 ± 0.004 µM
same,Ki,5HT1A receptor,0.0557 ± 0.0083 µM
O=C(CN1CC[S][Re]2(=[O])[S]CC[N]2C(=O)C1)NC1CCN(Cc2ccccc2)CC1 (centres unmarked) [Re-22],Ki,σ1 receptor,5.51 µM
same,Ki,σ2 receptor,4.71 ± 0.986 µM
